Measurements published in patent US11613533B2, “Compounds useful for inhibiting RET kinase” (Eli Lilly and Company, priority 2020, dated 2023).
Changes are numbered by the printed parent chain.

Columns and labels:
[1] = target: T1, G810S mutant RET kinase (N-Terminal GST-tagged recombinant human G810S, aa-658-end) (Homo sapiens, UniProt P07949, G810S); experiment: RET enzyme assay (HTRF KinEASE TK), G810S; format: biochemical; settings: 1 mM ATP, 60 min incubation at 22° C.
T1 construct: recombinant human G810S (aa-658-end); GST (N); made in house; host or cells: insect cells
T1 sequence (P07949 658-1114 G810S limits assumed): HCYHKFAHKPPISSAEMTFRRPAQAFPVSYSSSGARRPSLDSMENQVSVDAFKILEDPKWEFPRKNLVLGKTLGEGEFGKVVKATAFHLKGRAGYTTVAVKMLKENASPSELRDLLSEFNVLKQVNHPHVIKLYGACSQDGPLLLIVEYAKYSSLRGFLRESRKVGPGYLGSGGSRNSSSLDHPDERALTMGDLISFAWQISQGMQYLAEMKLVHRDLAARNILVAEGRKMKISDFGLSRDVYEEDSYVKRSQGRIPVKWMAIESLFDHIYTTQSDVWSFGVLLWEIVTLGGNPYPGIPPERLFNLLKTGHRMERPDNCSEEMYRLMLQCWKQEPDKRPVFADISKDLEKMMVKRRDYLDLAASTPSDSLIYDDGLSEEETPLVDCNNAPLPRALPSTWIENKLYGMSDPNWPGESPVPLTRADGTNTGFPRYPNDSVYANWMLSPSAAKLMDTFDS
Experimental: (§1) Assay A: RET Enzyme Assay
(§2) Compounds of formulas I, II, or III are screened for their ability to inhibit wildtype, V804M, and G810S mutant RET kinase using CisBio's HTRF® KinEASE™TK assay technology. N-terminal GST tagged recombinant human RET cytoplasmic domain (aa 658-end) from Eurofins ([…]; Catalog No. 14-570M) or N-terminal GST tagged recombinant human V804M mutant RET cytoplasmic domain (aa 658-end) from Millipore (1.25 nM enzyme; Catalog No. 14-760) or N-Terminal GST-tagged recombinant human G810S (aa-658-end) (1.25 nM Enzyme; produced in insect cells) is incubated with 62.5 nM TK-substrate biotin (CisBio, part of Catalog No. 62TK0PEC) and 1 mM ATP along with test compound (0.4% final DMSO in the assay) in a 1× Cisbio enzymatic buffer consisting of […], 5 mM MgCl2, 0.04% BSA and 0.05% Tween20 in a volume of 10 μL. Compounds are typically prepared in a threefold serial dilution in DMSO and added to the assay to give the appropriate final concentration. After a 40-60 min (40 min for V804M, 60 min for WT and G810S) incubation at 22° C., the reaction is quenched by adding quench solution (10 μL) containing 7.8 nM Streptavidine-XL665 and 0.5×TK-ab-Cryptate in HTRF detection buffer (all from CisBio, part of Cat. No. 62TK0PEC). After a 60-80 min incubation (60 minutes for WT, 80 minutes for V804M and G810S) at 22° C., the extent of reaction is determined using a PHERastar plate reader via HTRF detection at excitation/emission 337/665 nm. Percent of inhibition is calculated with 0% inhibition referring to control conditions containing no compound (0.4% DMSO only) and 100% inhibition represented by conditions containing no enzyme. The % inhibition values are fit to a 4 parameter logistic curve, and the determined IC50 value is defined as the estimated concentration of inhibitor at the inflexion point of the fitted curve.

[2] = target: T2, V804M mutant RET kinase (N-terminal GST tagged recombinant human V804M mutant RET cytoplasmic domain, aa 658-end) (Homo sapiens, UniProt P07949, V804M); experiment: RET enzyme assay (HTRF KinEASE TK), V804M; format: biochemical; settings: 1 mM ATP, 40 min incubation at 22° C.
T2 construct: human V804M mutant RET cytoplasmic domain (aa 658-end); GST (N); purchased Millipore 14-760
T2 sequence (P07949 658-1114 V804M limits assumed): T1 sequence (P07949 658-1114 G810S limits assumed) with V147M, S153G
Experimental: as §1, §2

An IC50 [1] of under 100 nM and an IC50 [2] of under 100 nM were found for `CCC(C)(C)c1cc(NC(=O)C(C)c2ccc(-c3nn(C(C)C)c(N)c3C(N)=O)cc2)on1` (single isomer, unassigned; isomer 1) [Example 15, 5-Amino-1-isopropyl-3-[4-(1-[[3-(2-methylbutan-2-yl)-1,2-oxazol-5-yl]carbamoyl]ethyl)phenyl]pyrazole-4-carboxamide, Isomer 1] in this work.
